Source: patent US9339486B2, “Heterocyclic modulators of cannabinoid receptors” (THE CLEVELAND CLINIC FOUNDATION, priority 2008, dated 2016)
Read-outs that look alike come from different tables or passages of the source.

Key:
[1] = target: CB2 (Homo sapiens (Human), UniProt P34972); assay: CB2 Binding Assay ([3H]WIN 55212-2, cell membrane homogenates)
Experimental: Cell membrane homogenates (15 μg protein) were incubated for 120 min at 37° C. with 0.8 nM [3H]WIN 55212-2 (the reference standard [Munro, 1993 #1321]) in the absence or presence of the test compound in a buffer containing 50 mM HEPES/Tris HCL (pH 7.4), 5 mM MgCl2, 2.5 mM EGTA, and 0.1% BSA. Nonspecific binding was determined in the presence of 10 μM WIN 55212-2. After being incubated, the samples were filtered rapidly under vacuum through glass fiber filters (GF/B; Packard) presoaked with 0.3% PEI and rinsed several times with ice-cold buffer containing 50 mM Tris HCl (pH 7.4) and 0.5% BSA using a 96-sample cell harvester (Unifilter; Packard). The filters were dried then counted for radioactivity in a scintillation counter (Topcount; Packard) using a scintillation cocktail (Microscint 0; Packard). The results were expressed as a percentage of the inhibition of the control radioligand-specific binding. The reference standard compounds were tested in each experiment at several concentrations to obtain a competition curve from which its IC50 was calculated.

[2] = test system: paclitaxel-induced neuropathic pain model; assay: animal or person; format: in vivo, rat; conditions: for ED50: Rattus norvegicus, ip
Experimental: Groups of rats received daily i.p. injections of either vehicle or 1.0 mg/kg paclitaxel daily for four consecutive days for a final cumulative dose of 4 mg/kg; using an injection volume of 1 ml/kg. Polomano, R. C., et al., A Painful Peripheral Neuropathy in the Rat Produced by the Chemotherapeutic Drug, Paclitaxel, Pain, 2001, 94:293-304. The vehicle used in our experiments was the same vehicle used clinically for paclitaxel injections and is composed of a mixture of 10% saline and Cremophor EL® and […]. Baseline responses to mechanical stimulation of the hindpaw (see below) were established on day zero and continued daily until the development of neuropathy was confirmed.
Rats were placed in a compartment with a wire mesh bottom and allowed to acclimate for a minimum of 30 min before testing. Mechanical sensitivity was assessed using a series of Von Frey filaments with logarithmic incremental stiffness (0.41, 0.70, 1.20, 2.00, 3.63, 5.50, 8.50, and 15.1 g) (Stoelting, Wood Dale, Ill.) as previously described, and 50% probability withdrawal thresholds were calculated with the up-down method. Chaplan, S. R., et al., Quantitative Assessment of Tactile Allodynia in the Rat Paw, J. Neurosci. Methods, 1994, 53:55-63; Dixon, W., The Up-and-Down Method for Small Samples, J. Am. Stat. Assoc., 1965, 60:967-78. In brief, beginning with the 2.0-g probe, filaments were applied to the plantar surface of a hind paw for 6-8 s, in an ascending or descending order after a negative or positive withdrawal response, respectively. Six consecutive responses from the first change in the response were used to calculate the withdrawal threshold (in grams). In cases where response thresholds fell outside the range of detection, 15.00 and 0.25 g were, respectively, assigned for continuous negative or positive responses to the limit of stimuli. The percent maximal possible effect (% MPE) was calculated as ([postdrug threshold−baseline threshold]/[cutoff threshold (15 g)−baseline threshold])×100.
To determine sensitivity to noxious heat, rats were placed in plexiglass enclosures on a transparent glass surface maintained at 30° C. and allowed to acclimate for 30 min. A thermal testing apparatus, consisting of a heat-emitting projector lamp and an electronic timer, was used. The device was activated after the lamp is placed directly beneath the planter surface of the hindpaw. The paw withdrawal latency in response to the radiant heat was recorded by a digital timer. A cutoff of 30 s was used to prevent potential tissue damage. After the baseline was measured, three groups of naïve rats (n=10) received 1.0, 3.0, or 10 mg/kg of the compound of Example 3 i.p. Response latencies were determined twice for each rat before drug injection and at 5, 10, 15, 30, 45, 60, 90 and 120 min after IP injection. The percent maximal possible effect (% MPE) was calculated as ([postdrug latency−baseline latency]/[cutoff time (30 s)−baseline latency])×100.
Statistical analyses were carried out using BMDP 2007 (Statistical Solutions, Saugus, Mass., USA) and Graph Pad Prism (version 4.03; Graph Pad Software Inc., San Diego, Calif., USA). Data were analyzed using one-way ANOVA, repeated measures ANOVA, or t-test where appropriate. If ANOVA was significant, Tukey-Kramer post hoc analysis was used for multiple group comparison. Area under the curve (AUC) was calculated using the trapezoidal rule. The results are presented as mean±s.e. mean and were considered significant at P<0.05. Analyses of the dose-response curves and statistics were obtained using the pharmacologic software programs of Tallarida and Murray and included calculation of the ED50 values and their 95% confidence intervals (CI). Tallarida, R. J., et al., Manual of Pharmacologic Calculations With Computer Programs, Second ed. New York: Springer-Verlag, 1987.

[3] = target: rCB2 receptors (Rattus norvegicus (Rat), UniProt Q9QZN9); assay: cAMP activation assay rCB2; format: cell-based; conditions: read-out: Agonist EC50 (mean ± s.e. mean) cAMP activation assays rCB2
Experimental: The compound of Example 3 was tested for agonist activity at the rat CB1 (rCB1) and rCB2 receptors, at eight concentrations, in duplicate: 10, 3, 1, 0.3, 0.1, 0.03, 0.01 and 0.001 μM. Recombinant cells grown to mid-log phase in culture media without antibiotics were detached with PBS containing 5 mM EDTA, centrifuged and resuspended in assay buffer at a concentration of 16.6×10^5 cells/ml. The test was performed in 96 well plates. For testing, 12 μl of cells ([…]) were mixed with 12 μl of agonist at increasing concentrations. […] The plates were then incubated for 30 min at room temperature. After addition of the lysis buffer, cAMP concentrations were estimated, according to the manufacturer specification, with the HTRF kit from Cis-Bio International (Catalogue number 62AM2PEB).

[4] = target: rat CB1 (rCB1) (Rattus norvegicus (Rat), UniProt P20272); assay: cAMP activation assay rCB1; format: cell-based
Experimental: The test was performed in 96 well plates. For testing, 12 μl of cells (2×10^3 cells/well) were mixed with 12 μl of agonist at increasing concentrations. […] The plates were then incubated for 30 min at room temperature. After addition of the lysis buffer, cAMP concentrations were estimated, according to the manufacturer specification, with the HTRF kit from Cis-Bio International (Catalogue number 62AM2PEB).

[5] = CB2, test concentration 1.0E−05 (MD)

Chain of CB2 (P34972 whole entry): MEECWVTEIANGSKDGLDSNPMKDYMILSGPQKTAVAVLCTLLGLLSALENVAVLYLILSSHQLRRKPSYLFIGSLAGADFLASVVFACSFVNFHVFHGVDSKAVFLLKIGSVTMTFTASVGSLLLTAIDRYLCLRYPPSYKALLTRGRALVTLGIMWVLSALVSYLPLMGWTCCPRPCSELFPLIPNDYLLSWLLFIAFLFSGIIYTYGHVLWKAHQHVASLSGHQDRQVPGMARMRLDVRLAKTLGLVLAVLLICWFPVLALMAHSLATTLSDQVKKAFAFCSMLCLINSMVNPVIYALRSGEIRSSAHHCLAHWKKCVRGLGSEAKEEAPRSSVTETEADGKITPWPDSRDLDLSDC

Structure (SMILES): CC1(Cc2ccccc2)COc2cc(C(=O)N3CCCCC3)ccc21 (stereo not drawn) [Example 3, 3-benzyl-3-methyl-2,3-dihydrobenzofuran-6-carboxylic acid-piperidine amide]
- % Inhibition of Control Specific Binding [1, 5]: 91%
- % of Control Specific Binding Mean [1, 5]: 9.4%
- % of Control Specific Binding 1st ([1]; CB2, test concentration 1.0E−05 (MD), first replicate): 13%
- % of Control Specific Binding 2nd ([1]; CB2, test concentration 1.0E−05 (MD), second replicate): 5.8%
- % Inhibition of Control Specific Binding CB2 ([1]; as repeated in Table 4): 91%
- ED50 ([2]; 20 min, read-out: ED50 for suppressing thermal hyperalgesia): 13.5 mg/kg
- ED50 ([2]; read-out: ED50 tactile allodynia (% MPE withdrawal threshold AUC)): 24 mg/kg
- time of maximal suppression ([2]; i.p.): 20 min
- effect on paclitaxel-evoked thermal hyperalgesia and mechanical allodynia relative to vehicle ([2]; i.p., dose-dependent): suppressed
- EC50 [3]: 21.7 ± 7.9 nM
- activity at rCB1 receptors [4]: did not exhibit any activity
- EC50 ([4]; read-out: Agonist EC50 (mean ± s.e. mean) cAMP activation assays rCB1): > 10000 nM
